{"source": "patent US7078389B2", "about": "“Chemically modified oligonucleotide for site-directed mutagenesis” (priority 1993, dated 2006)", "key": {"[1]": {"test_system": "supF gene within the pSP189 SV40 vector", "assay": "SV40 mutagenesis: vector DNA passaged in COS-7 cells", "assay_type": "cell-based, monkey", "experimental": "FIG. 3 is a schematic representation of the strategy for targeted mutagenesis of SV40 DNA. The 10 base triplex-forming oligonucleotide, psoralen-AG10 (4′hydroxymethyl-4,5′,8-trimethylpsoralen-5′[…]3′) (SEQ ID NO:1), is shown directly above its targeted sequence in the supF gene (base pairs 167–176), contained within the SV40 vector, pSP189. Psoralen-AG10 is incubated with the SV40 vector DNA to allow site-specific triplex formation. Photoactivation of the psoralen by irradiation with long wave ultraviolet light (320–400 nm) is designed to generate an adduct at the targeted base pair (167), as indicated by the arrow. The oligo-plasmid complex is then transfected into monkey COS-7 cells and allowed to replicate for 48 hours. Following purification of the vector DNA by the Hirt lysate procedure (Hirt et al., J. Mol. Biol. 26:365–369 (1967)), the DNA is used to transform E. coli SY204 lacZ125 (Am).\nSV40 mutagenesis. The SV40 vector DNA (pSP189) at 80 nM was incubated with psoralen-AG10 or psoralen-GA10 (ranging from 2 to 1000-fold molar excess) and irradiated as described above. The oligonucleotide-plasmid complex was then transfected into monkey COS-7 cells (ATCC #1651-CRL) using cationic liposomes (DOTAP, Boehringer Manheim, Indianapolis, Ind.) at a final concentration of 5 μg/ml in the culture dish. The DNA/oligo/liposome mixture was added dropwise to the cell culture dish with swirling. The following day, the media containing the liposome mixture was replaced by fresh media. Following 48 hours to allow repair and replication, SV40 vector DNA was harvested from the COS cells by the Hirt lysate procedure. Genetic analysis of the supF genes in the SV40 vector was carried out by transformation of E. coli SY204 [lacZ125(Am)] to ampicillin resistance by electroporation using 12–150 ng of Dpn I digested Hirt lysate DNA and a Bio-Rad Gene Pulser apparatus equipped with a Pulse Controller (Bio-Rad, Richmond, Calif.). Mutants were identified by growth in the presence of 65 μg/ml IPTG and 80 μg/ml X-Gal, as described by (Glazer et al., Mol. Cell Biol. 7:218–224 (1987)). These transformants were counted and the mutants (white colonies) were streaked for single colonies.\nIn this vector system, the SV40 DNA, after appropriate treatment, is introduced into monkey COS cells where repair and replication can occur, producing mutations indicative of mammalian processing of DNA damage. The small, circular vector DNA is recovered from the cells by biochemical separation from the chromosomal DNA (Hirt lysate, Hirt et al., J. Mol. Biol. 26:365–369 (1967)), and it is used to transform E. coli carrying the lacZ (amber) mutation to allow analysis of supF gene function by scoring colonies for β-galactosidase activity (produced via suppression of the amber mutation in lacZ) in the presence of the chromogenic substrate, X-gal. Vectors with wild type supF genes yield blue colonies; those with mutations in supF produce white ones. In order to eliminate misleading data that might arise from viral DNA that was not replicated or repaired in the mammalian cells, the viral DNA is digested before bacterial transformation with the enzyme Dpn I which will restrict DNA that has not been methylated by the mammalian pattern at its recognition site.\nThe design of the initial experiments to target mutations to SV40 DNA is illustrated in FIG. 3. A 10 base pair region of the supF gene (bp 167–176) was identified as a site amenable to triplex formation because of the homopurine/homopyrimidine run there. Since this run was G-rich, the purine motif for triplex formation was selected (Beal and Dervan, Science 251:1360–1363 (1991)), and an oligonucleotide, 5′[…]3′ (SEQ ID NO:2) (AG10) was synthesized based on this motif. A psoralen derivative, 4′-hydroxymethyl-4,5′,8-trimethylpsoralen, was attached to the oligonucleotide by a phosphodiester linkage at the 5′ adenine via a two carbon linker arm, with the goal of directing mutations to base pair 167."}, "[2]": {"test_system": "supF gene within the SV40 vector pSP189", "assay": "Hinf I restriction enzyme protection assay, SV40 vector DNA target", "assay_type": "binding", "details": "vector 50 nM", "experimental": "The binding and irradiation were carried out as described above, except that pSP189 was used as the supF target at a concentration of 50 nM and psoralen-AG10 was added at ratios of oligomer to vector of from 1:1 to 1000:1. Irradiation and gel conditions were as described above.\nSimilar experiments were performed to assay for site-specific binding of psoralen-AG10 to bp 167–176 in the supF gene within the SV40 vector itself. In these experiments, varying ratios of oligonucleotide to vector DNA were employed in order to examine basic parameters of the triplex binding to the viral genome. […] Binding of psoralen-AG10 as a triple strand to bp 167–176 of the supF gene within the SV40 vector was assayed by examining protection from Hinf I digestion at bp 164–168, as diagrammed in FIG. 4. The SV40 vector containing the supF target gene (50 nM) was incubated with psoralen-AG10 at ratios of oligomer to vector of from 1:1 to 1000:1, irradiated with 1.8 J/cm^2 of UVA, digested with Hinf I, and run on a 4.5% Nusieve gel. Because the sequences flanking the supF gene in the SV40 DNA differ from those in the PCR fragment, and since there are multiple Hinf I sites in SV40, the pattern of bands is more complex."}, "[3]": {"details": "ratio of oligo to vector 2:1, UVA 1.8 J/cm^2"}, "[4]": {"details": "ratio of oligo to vector 5:1, UVA 1.8 J/cm^2"}, "[5]": {"details": "ratio of oligo to vector 10:1, UVA 1.8 J/cm^2"}, "[6]": {"details": "ratio of oligo to vector 1000:1, no UVA"}}, "note": "Where “and” joins values, the source holds several entries; their conditions need not be identical. Equal values may be shown once."}
{"substance": "pso-^5′GGGGGAAGGA^3′ (DNA NGGGGGAAGGA; psoralen conjugated at 5' end, further chemistry not given here) [pso-GA10, reference compound]", "values": [{"measurement": "supF mutagenesis relative to background", "setting": "[1]; lower ratios of oligo to vector (below 1000:1), plus UVA", "result": "no significant mutagenesis above the background frequency"}, {"measurement": "% mutants (supF gene)", "setting": "[1]; [3]", "result": 0.07, "unit": "%"}, {"measurement": "% mutants (supF gene)", "setting": "[1]; [4]", "result": 0.13, "unit": "%"}, {"measurement": "% mutants (supF gene)", "setting": "[1]; [5]", "result": 0.06, "unit": "%"}, {"measurement": "% mutants (supF gene)", "setting": "[1]; ratio of oligo to vector 1000:1, UVA 1.8 J/cm^2, listed as psoralen-GA10", "result": "0.5% and 0.63%"}, {"measurement": "% mutants (supF gene)", "setting": "[1]; [6]", "result": "≦0.07%"}, {"measurement": "Mutants per total colonies", "setting": "[1]; [6]", "result": "0/1500"}]}
{"substance": "4′-hydroxymethyl-4,5′,8-trimethylpsoralen-^5′AGGAAGGGGG^3′ (DNA NAGGAAGGGGG; 4'-hydroxymethyl-4,5',8-trimethylpsoralen conjugated at 5' end, further chemistry not given here) [pso-AG10]", "values": [{"measurement": "Hinf I protection at the targeted site", "setting": "[2]; oligomer to vector 1:1, UVA 1.8 J/cm^2", "result": "only partial protection"}, {"measurement": "Hinf I protection at the targeted site", "setting": "[2]; oligomer to vector 2:1, UVA 1.8 J/cm^2", "result": "only partial protection"}, {"measurement": "Hinf I protection at the targeted site", "setting": "[2]; oligomer to vector 10:1, UVA 1.8 J/cm^2", "result": "almost complete"}, {"measurement": "Hinf I protection at the targeted site", "setting": "[2]; oligomer to vector 100:1, UVA 1.8 J/cm^2", "result": "near complete protection"}, {"measurement": "Hinf I protection at the targeted site", "setting": "[2]; oligomer to vector 1000:1, UVA 1.8 J/cm^2", "result": "near complete protection"}, {"measurement": "Fold higher targeted mutagenesis in SV40 than in bacteriophage lambda grown in E. coli", "setting": "[1]; 6% to 7% versus 0.23%", "result": 30, "unit": "fold"}, {"measurement": "% mutants (supF gene)", "setting": "[1]; [3]", "result": 2.5, "unit": "%"}, {"measurement": "% mutants (supF gene)", "setting": "[1]; [4]", "result": 4.3, "unit": "%"}, {"measurement": "% mutants (supF gene)", "setting": "[1]; [5]", "result": 6.4, "unit": "%"}, {"measurement": "% mutants (supF gene)", "setting": "[1]; ratio of oligo to vector 1000:1, UVA 1.8 J/cm^2", "result": 7.3, "unit": "%"}, {"measurement": "% mutants (supF gene)", "setting": "[1]; [6]", "result": "≦0.06%"}, {"measurement": "Mutants per total colonies", "setting": "[1]; [6]", "result": "0/1700"}]}
